Results taken from ChEMBL document CHEMBL1123050, “New cysteamine (2-chloroethyl)nitrosoureas. Synthesis and preliminary antitumor results” (1985).

Experiments:
Mus musculus [1] = assay: Antitumor activity was evaluated against L1210 leukemia, injected intravenously at a dose 195 umol/kg; infinity-50-100%survivals; assay type: functional, organism-based
Mus musculus [2] = assay: Antitumor activity was evaluated against L1210 leukemia, injected intravenously at a dose 155 umol/kg; infinity-50-100%survivals; assay type: functional, organism-based
Mus musculus [3] = assay: Antitumor activity was evaluated against L1210 leukemia, injected intraperitoneally at a dose 155 umol/kg; infinity-50-100%survivals; assay type: functional, organism-based
Mus musculus [4] = assay: Antitumor activity was evaluated against L1210 leukemia, injected intravenously at a dose 115 umol/kg; infinity-50-100%survivals; assay type: functional, organism-based
Mus musculus [5] = assay: Antitumor activity was evaluated against L1210 leukemia, injected intraperitoneally at a dose 80 umol/kg; infinity-50-100%survivals; assay type: functional, organism-based
Mus musculus [6] = assay: Antitumor activity was evaluated against L1210 leukemia, injected intraperitoneally at a dose 195 umol/kg; infinity-50-100%survivals; assay type: functional, organism-based
Mus musculus [7] = assay: Antitumor activity was evaluated against L1210 leukemia, injected intraperitoneally at a dose 115 umol/kg; infinity-50-100%survivals; assay type: functional, organism-based
L1210 [8] = assay: Antitumor activity was evaluated against L1210 leukemia, injected intraperitoneally at a dose 120 umol/kg; assay type: functional, Mus musculus
L1210 [9] = assay: Antitumor activity was evaluated against L1210 leukemia, injected intraperitoneally at a dose 95 umol/kg; infinity-50-100%survivals; assay type: functional, cell-based; details: Mus musculus
L1210 [10] = assay: Number of survivors/ number of animals tested at the dose of 25 mg/Kg; 0/6; assay type: functional, Mus musculus
L1210 [11] = assay: Number of survivors/ number of animals tested at the dose of 75 mg/Kg; 6/6; assay type: functional, Mus musculus
L1210 [12] = assay: Number of survivors/ number of animals tested at the dose of 125 mg/Kg; 0/6; assay type: functional, Mus musculus
L1210 [13] = assay: Number of survivors/ number of animals tested at the dose of 50 mg/Kg; 6/6; assay type: functional, Mus musculus
L1210 [14] = assay: Antitumor activity was evaluated against L1210 leukemia, injected intraperitoneally at a dose 50 umol/kg; infinity-50-100%survivals; assay type: functional, cell-based; details: Mus musculus
L1210 [15] = assay: Number of survivors/ number of animals tested at the dose of 95 mg/Kg; 3/6; assay type: functional, Mus musculus
L1210 [16] = assay: Antitumor activity was evaluated against L1210 leukemia, injected intraperitoneally at a dose 25 umol/kg; assay type: functional, Mus musculus
L1210 [17] = assay: Antitumor activity was evaluated against L1210 leukemia, injected intraperitoneally at a dose 75 umol/kg; infinity-50-100%survivals; assay type: functional, cell-based; details: Mus musculus
Mus musculus [18] = assay: Antitumor activity was evaluated against L1210 leukemia, injected intraperitoneally at a dose 210 umol/kg; assay type: functional
Mus musculus [19] = assay: Number of survivors/ number of animals tested at the dose of 210 mg/Kg; 3/6; assay type: functional
Mus musculus [20] = assay: Number of survivors/ number of animals tested at the dose of 125 mg/Kg, iv; 6/6; assay type: functional
Mus musculus [21] = assay: Number of survivors/ number of animals tested at the dose of 125 mg/Kg; 6/6; assay type: functional
Mus musculus [22] = assay: Number of survivors/ number of animals tested at the dose of 80 mg/Kg; 6/6; assay type: functional
Mus musculus [23] = assay: Antitumor activity was evaluated against L1210 leukemia, injected intravenously at a dose 80 umol/kg; assay type: functional
L1210 [24] = assay: (§1) Antitumor activity was evaluated against L1210 leukemia, injected intraperitoneally at a dose 40 umol/kg; assay type: functional, Mus musculus
Mus musculus [25] = assay: Number of survivors/ number of animals tested at the dose of 165 mg/Kg; 6/6; assay type: functional
Mus musculus [26] = assay: Number of survivors/ number of animals tested at the dose of 165 mg/Kg; 5/6; assay type: functional
Mus musculus [27] = assay: Number of survivors/ number of animals tested at the dose of 80 mg/Kg, iv; 0/6; assay type: functional
Mus musculus [28] = assay: Number of survivors/ number of animals tested at the dose of 40 mg/Kg; 2/6; assay type: functional
Mus musculus [29] = assay: Number of survivors/ number of animals tested at the dose of 40 mg/Kg, iv; 0/6; assay type: functional
Mus musculus [30] = assay: Number of survivors/ number of animals tested at the dose of 210 mg/Kg; 0/6; assay type: functional
Mus musculus [31] = assay: Antitumor activity was evaluated against L1210 leukemia, injected intravenously at a dose 40 umol/kg; assay type: functional
Mus musculus [32] = assay: Antitumor activity was evaluated against L1210 leukemia, injected intravenously at a dose 120 umol/kg; assay type: functional
L1210 [33] = assay: Number of survivors/ number of animals tested at the dose of 60 mg/Kg, iv; 6/6; assay type: functional, Mus musculus
L1210 [34] = assay: Number of survivors/ number of animals tested at the dose of 80 mg/Kg, iv; 1/6; assay type: functional, Mus musculus
L1210 [35] = assay: (§2) Number of survivors/ number of animals tested at the dose of 20 mg/Kg, iv; 0/6; assay type: functional, Mus musculus
Mus musculus [36] = assay: Antitumor activity was evaluated against L1210 leukemia, injected intravenously at a dose 20 umol/kg; assay type: functional
L1210 [37] = assay: Number of survivors/ number of animals tested at the dose of 120 mg/Kg, iv; 0/6; assay type: functional, Mus musculus
L1210 [38] = assay: (§3) Number of survivors/ number of animals tested at the dose of 40 mg/Kg, iv; 6/6; assay type: functional, Mus musculus
Mus musculus [39] = assay: Antitumor activity was evaluated against L1210 leukemia, injected intravenously at a dose umol/kg; infinity-50-100%survivals; assay type: functional, organism-based
Mus musculus [40] = assay: Number of survivors/ number of animals tested at the dose of 60 mg/Kg, iv; 4/6; assay type: functional
Mus musculus [41] = assay: Antitumor activity was evaluated against L1210 leukemia, injected intravenously at a dose umol/kg, survivors/6; assay type: functional
Mus musculus [42] = assay: as §3; assay type: functional
Mus musculus [43] = assay: as §2; assay type: functional
Mus musculus [44] = assay: Antitumor activity was evaluated against L1210 leukemia, injected intravenously at a dose umol/kg; assay type: functional
Mus musculus [45] = assay: Antitumor activity was evaluated against L1210 leukemia, injected intraperitoneally at a dose 295 umol/kg; assay type: functional
Mus musculus [46] = assay: Number of survivors/ number of animals tested at the dose of 235 mg/Kg, iv; 5/6; assay type: functional
Mus musculus [47] = assay: as §1; assay type: functional
Mus musculus [48] = assay: Number of survivors/ number of animals tested at the dose of 80 mg/Kg, ip; 5/6; assay type: functional
Mus musculus [49] = assay: Number of survivors/ number of animals tested at the dose of 115 mg/Kg, iv; 6/6; assay type: functional
Mus musculus [50] = assay: Number of survivors/ number of animals tested at the dose of 195 mg/Kg, iv; 5/6; assay type: functional
Mus musculus [51] = assay: Number of survivors/ number of animals tested at the dose of 195 mg/Kg, ip; 5/6; assay type: functional
Mus musculus [52] = assay: Number of survivors/ number of animals tested at the dose of 235 mg/Kg, ip; 0/6; assay type: functional
Mus musculus [53] = assay: Number of survivors/ number of animals tested at the dose of 40 mg/Kg, ip; 0/6; assay type: functional
Mus musculus [54] = assay: Number of survivors/ number of animals tested at the dose of 115 mg/Kg, ip; 6/6; assay type: functional
Mus musculus [55] = assay: Antitumor activity was evaluated against L1210 leukemia, injected intravenously at a dose 235 umol/kg; assay type: functional
Mus musculus [56] = assay: Number of survivors/ number of animals tested at the dose of 155 mg/Kg, ip; 6/6; assay type: functional
Mus musculus [57] = assay: Number of survivors/ number of animals tested at the dose of 155 mg/Kg, iv; 6/6; assay type: functional
Mus musculus [58] = assay: Antitumor activity was evaluated against L1210 leukemia, injected intravenously at a dose 40-250 umol/kg; assay type: functional
Mus musculus [59] = assay: Antitumor activity was evaluated against L1210 leukemia, injected intravenously at a dose 165 umol/kg; infinity-50-100%survivals; assay type: functional, organism-based
Mus musculus [60] = assay: Antitumor activity was evaluated against L1210 leukemia, injected intraperitoneally at a dose 165 umol/kg; infinity-50-100%survivals; assay type: functional, organism-based
Mus musculus [61] = assay: Antitumor activity was evaluated against L1210 leukemia, injected intravenously at a dose 210 umol/kg; infinity-50-100%survivals; assay type: functional, organism-based
Mus musculus [62] = assay: Antitumor activity was evaluated against L1210 leukemia, injected intraperitoneally at a dose 125 umol/kg; infinity-50-100%survivals; assay type: functional, organism-based
Mus musculus [63] = assay: Antitumor activity was evaluated against L1210 leukemia, injected intravenously at a dose 125 umol/kg; infinity-50-100%survivals; assay type: functional, organism-based

Structure (SMILES): CS(=O)(=O)CCN(N=O)C(=O)NCCCl.CS(=O)(=O)CCNC(=O)N(CCCl)N=O [listing 1 of 2 here]
- T/C x100 (Mus musculus [1]): infinity-50-100%survivals
- T/C x100 (Mus musculus [2]): infinity-50-100%survivals
- T/C x100 (Mus musculus [3]): infinity-50-100%survivals
- T/C x100 (Mus musculus [4]): infinity-50-100%survivals
- T/C x100 (Mus musculus [5]): infinity-50-100%survivals
- T/C x100 (Mus musculus [6]): infinity-50-100%survivals
- T/C x100 (Mus musculus [7]): infinity-50-100%survivals

Structure (SMILES): O=NN(CCCl)C(=O)NCCSSCCN(N=O)C(=O)NCCCl.O=NN(CCSSCCN(N=O)C(=O)NCCCl)C(=O)NCCCl
- T/C x100 (L1210 [8]): 125
- T/C x100 (L1210 [9]): infinity-50-100%survivals
- Survivors (L1210 [10]): 0
- Survivors (L1210 [11]): 6
- Survivors (L1210 [12]): 0
- Survivors (L1210 [13]): 6
- T/C x100 (L1210 [14]): infinity-50-100%survivals
- Survivors (L1210 [15]): 3
- T/C x100 (L1210 [16]): 250
- T/C x100 (L1210 [17]): infinity-50-100%survivals

Structure (SMILES): C[S+]([O-])CCN(N=O)C(=O)NCCCl.C[S+]([O-])CCNC(=O)N(CCCl)N=O (stereo unspecified) [listing 1 of 2 here]
- T/C x100 (Mus musculus [18]): 295
- Survivors (Mus musculus [19]): 3
- Survivors (Mus musculus [20]): 6
- Survivors (Mus musculus [21]): 6
- Survivors (Mus musculus [22]): 6
- T/C x100 (Mus musculus [23]): 270
- T/C x100 (L1210 [24]): 300
- Survivors (Mus musculus [25]): 6
- Survivors (Mus musculus [26]): 5
- Survivors (Mus musculus [27]): 0
- Survivors (Mus musculus [28]): 2
- Survivors (Mus musculus [29]): 0
- Survivors (Mus musculus [30]): 0
- T/C x100 (Mus musculus [31]): 170

Structure (SMILES): CS(=O)(=O)CCNC(=O)N(CCCl)N=O
- T/C x100 (Mus musculus [32]): 190
- Survivors (L1210 [33]): 6
- Survivors (L1210 [34]): 1
- T/C x100 (Mus musculus [23]): 300
- Survivors (L1210 [35]): 0
- T/C x100 (Mus musculus [36]): 200
- Survivors (L1210 [37]): 0
- Survivors (L1210 [38]): 6

Structure (SMILES): C[S+]([O-])CCNC(=O)N(CCCl)N=O (stereo unspecified)
- T/C x100 (Mus musculus [39]): infinity-50-100%survivals
- Survivors (Mus musculus [27]): 0
- Survivors (Mus musculus [40]): 4
- T/C x100 (Mus musculus [41]): 190
- Survivors (Mus musculus [42]): 6
- Survivors (Mus musculus [43]): 0
- T/C x100 (Mus musculus [44]): 190

Structure (SMILES): CS(=O)(=O)CCN(N=O)C(=O)NCCCl.CS(=O)(=O)CCNC(=O)N(CCCl)N=O [listing 2 of 2 here]
- T/C x100 (Mus musculus [45]): 410
- Survivors (Mus musculus [46]): 5
- T/C x100 (Mus musculus [23]): 230
- T/C x100 (Mus musculus [47]): 190
- Survivors (Mus musculus [48]): 5
- Survivors (Mus musculus [49]): 6
- Survivors (Mus musculus [50]): 5
- Survivors (Mus musculus [51]): 5
- Survivors (Mus musculus [27]): 0
- Survivors (Mus musculus [52]): 0
- Survivors (Mus musculus [53]): 0
- Survivors (Mus musculus [29]): 0
- T/C x100 (Mus musculus [31]): 190
- Survivors (Mus musculus [54]): 6
- T/C x100 (Mus musculus [55]): 290
- Survivors (Mus musculus [56]): 6
- Survivors (Mus musculus [57]): 6

Structure (SMILES): C[S+]([O-])CCN(N=O)C(=O)NCCCl (stereo unspecified)
- T/C x100 (Mus musculus [58]): <125

Structure (SMILES): CS(=O)(=O)CCN(N=O)C(=O)NCCCl
- T/C x100 (Mus musculus [58]): <125

Structure (SMILES): C[S+]([O-])CCN(N=O)C(=O)NCCCl.C[S+]([O-])CCNC(=O)N(CCCl)N=O (stereo unspecified) [listing 2 of 2 here]
- T/C x100 (Mus musculus [59]): infinity-50-100%survivals
- T/C x100 (Mus musculus [60]): infinity-50-100%survivals
- T/C x100 (Mus musculus [61]): infinity-50-100%survivals
- T/C x100 (Mus musculus [5]): infinity-50-100%survivals
- T/C x100 (Mus musculus [62]): infinity-50-100%survivals
- T/C x100 (Mus musculus [63]): infinity-50-100%survivals
